Legend:
hSGLT2 = biological target: T1, hSGLT2 (Homo sapiens, UniProt P31639); assay: cryo-EM structure of the complex at […] Å ([…] AMG); assay type: binding
T1 construct: gene SLC5A2; hSGLT2GFP-MAP17nb, in lipid nanodisc; with MAP17
T1 sequence (P31639 1-672): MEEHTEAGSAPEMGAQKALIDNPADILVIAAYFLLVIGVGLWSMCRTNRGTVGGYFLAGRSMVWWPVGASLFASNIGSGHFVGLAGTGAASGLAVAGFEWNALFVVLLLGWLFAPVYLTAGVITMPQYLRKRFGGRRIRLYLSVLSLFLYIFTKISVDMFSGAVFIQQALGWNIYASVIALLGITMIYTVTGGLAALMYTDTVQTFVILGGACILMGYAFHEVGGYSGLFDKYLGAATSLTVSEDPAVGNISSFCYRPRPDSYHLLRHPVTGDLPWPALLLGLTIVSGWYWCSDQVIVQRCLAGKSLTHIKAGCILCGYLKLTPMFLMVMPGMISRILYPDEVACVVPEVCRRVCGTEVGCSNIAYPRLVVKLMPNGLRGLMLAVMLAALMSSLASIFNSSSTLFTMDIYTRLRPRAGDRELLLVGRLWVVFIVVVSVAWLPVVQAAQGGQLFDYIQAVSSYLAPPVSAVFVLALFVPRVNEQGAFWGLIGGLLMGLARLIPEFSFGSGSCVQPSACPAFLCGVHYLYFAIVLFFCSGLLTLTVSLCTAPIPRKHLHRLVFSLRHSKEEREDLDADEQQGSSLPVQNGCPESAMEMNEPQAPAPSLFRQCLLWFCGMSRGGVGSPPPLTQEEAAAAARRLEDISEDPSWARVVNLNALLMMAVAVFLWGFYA
T1 sequence (Q13113 1-114 partner): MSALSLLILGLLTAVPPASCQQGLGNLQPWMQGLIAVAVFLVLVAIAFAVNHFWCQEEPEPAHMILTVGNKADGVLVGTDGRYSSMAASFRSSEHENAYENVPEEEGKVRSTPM

hSGLT1 = biological target: T2, hSGLT1 (Homo sapiens, UniProt P13866); assay: cryo-EM structure of the complex at […] Å; IC50 from inhibition of […]-NBD-glucose uptake in cells; assay type: cell-based
T2 construct: gene SLC5A1; hSGLT1GFP-MAP17nb (three-joint-tethering construct), in lipid nanodisc; with MAP17
T2 sequence (P13866 1-664): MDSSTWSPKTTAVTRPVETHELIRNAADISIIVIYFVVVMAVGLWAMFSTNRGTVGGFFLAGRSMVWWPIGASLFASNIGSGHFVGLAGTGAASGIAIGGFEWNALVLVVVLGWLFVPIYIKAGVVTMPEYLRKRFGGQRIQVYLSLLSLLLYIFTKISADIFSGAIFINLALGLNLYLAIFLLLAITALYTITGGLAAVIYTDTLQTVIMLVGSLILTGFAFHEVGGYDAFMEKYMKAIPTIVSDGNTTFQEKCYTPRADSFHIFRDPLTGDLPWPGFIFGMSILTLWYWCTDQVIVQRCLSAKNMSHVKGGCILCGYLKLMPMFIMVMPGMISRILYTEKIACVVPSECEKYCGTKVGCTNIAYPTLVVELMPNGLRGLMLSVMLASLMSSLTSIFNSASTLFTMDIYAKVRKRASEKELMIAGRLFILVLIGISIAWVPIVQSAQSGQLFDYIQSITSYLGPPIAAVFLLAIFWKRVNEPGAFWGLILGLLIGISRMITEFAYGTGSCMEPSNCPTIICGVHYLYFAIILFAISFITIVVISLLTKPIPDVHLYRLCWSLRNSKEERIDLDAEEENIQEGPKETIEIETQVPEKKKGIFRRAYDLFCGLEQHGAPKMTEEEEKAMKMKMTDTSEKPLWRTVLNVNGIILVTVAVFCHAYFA
T2 sequence (Q13113 1-114 partner): T1 sequence (Q13113 1-114 partner)

IC50 (hSGLT1)	Structure (SMILES)	cryo-EM structure of the complex at 3.33 Å (100 mM AMG) (hSGLT2)
–	CO[C@H]1O[C@H](CO)C(O)[C@H](O)[C@H]1O (stereo in doubt) [AMG, methyl alpha-D-galactopyranoside]	We observed that AMG is bound in an occluded substrate-binding site
~70 µM	OC[C@H]1OC(O)[C@H](O)[C@@H](O)[C@@H]1F (stereo partly drawn) [4D4FDG, 4-deoxy-4-fluoro-D-glucose]	–

Reference: paper PMC10203128, “Structures of human SGLT in the occluded state reveal conformational changes during sugar transport” (Nature Communications, 2023)
